Experimental data: US20150313215A1, “PESTICIDAL MIXTURES” (priority 2010, published 2015)

Key:
Format in all cases: in vivo
Phakopsora pachyrhizi = test: Greenhouse experiments, control of soybean rust on soybean, foliar spray; settings: Halo methylene benzonorbornene amide 1 gai/ha
Description: Control of Phakopsora pachyrhizi on Soybean
Greenhouse experiments were conducted to evaluate the ability of cis-jasmone to enhance fungicidal activity of a single agrochemical active ingredient and also of a mixture of two agrochemical active ingredients. A fungicidally active ingredient, N-[(1RS,4SR)-9-(Dichloromethylidene)-1,2,3,4-tetrahydro-1,4-methanonaphthalen-5-yl]-3-(difluoromethyl)-1-methyl-1H-pyrazole-4-carboxamide (“halo methylene benzonorbornene amide”), alone or in admixture with another fungicidally active ingredient, azoxystrobin, controls soybean rust when applied as a foliar spray. See data in Table 7.

[1] = tested on: Currant-Lettuce Aphid Nasonova ribis-nigri; test: Field trial, control of currant-lettuce aphid on lettuce (Example 2); settings: 1 foliar spray; for Average Number of Aphids per Plant: apterous aphids
Description: (§1) Control of Currant-Lettuce Aphid Nasonova ribis-nigri on Lettuce
A field trial using plots of 20 plants, 3 replicates and 1 foliar spray was assessed for number of apterous aphids/plant and number of infected plants on Day 4, Day 8, Day 11 and Day 14 after treatment. Data for untreated control are an average of four control plots (each 3 replicates; 240 total plants) which were interspersed within the treated plots.

Aphid Aphis gossypii [2] = test: Field trial, control of aphid on cotton (Example 5); settings: for Average Number of Aphids per Plant: 1 foliar spray, apterous adults; for average number of aphids per plant observed across all days monitored: Day 1 to Day 22
Description: (§2) Control of Aphid Aphis gossypii on Cotton
A field trial using 21 m^2 plots, 3 replicates and 1 foliar spray was assessed for number of apterous adults/plant on Day 1, Day 3, Day 5, Day 8, Day 10, Day 15, and Day 22 after treatment. Data for untreated control are an average of four control plots.

[3] = tested on: Two Spotted Spider Mite Tetranychus urticae; test: Field trial, control of two spotted spider mite on kidney beans; settings: 2 foliar sprays at 10 day intervals, 11 evaluation dates Day 3 to Day 35
Description: Control of Two Spotted Spider Mite Tetranychus urticae on Kidney Beans
A field trial using a plot size of 20 m^2, 3 replicates and 2 foliar sprays at 500 I/ha at 10 day intervals was assessed for average mite population/20 leaves/plot from 11 evaluation dates from Day 3 to Day 35 after treatment.

Thrips Thrips Tabaci = test: Field trial, control of thrips on cotton; settings: for Average Number of Thrips per Plant: 1 foliar spray, adult thrips; for average number of thrips per plant observed across all days monitored: Day 1 to Day 22
Description: Control of Thrips Thrips Tabaci on Cotton
A field trial using 21 m^2 plots, 3 replicates and 1 foliar spray was assessed for number of adult thrips/plant on Day 1, Day 3, Day 5, Day 8, Day 10, Day 15, and Day 22 after treatment. Data for untreated control are an average of four control plots.

[4] = tested on: Currant-Lettuce Aphid Nasonova ribis-nigri; test: Field trial, control of currant-lettuce aphid on lettuce (Example 3); settings: 1 foliar spray, apterous aphids
Description: as §1
A field trial using plots of 20 plants, 4 replicates and 1 foliar spray was assessed for number of apterous aphids/plant on Day 3, Day 7 and Day 10 after treatment.

Aphid Aphis gossypii [5] = test: Field trial, control of aphid on cotton (Example 6); settings: 1 foliar spray, 8 evaluation dates from Day 3 to Day 29
Description: as §2
A field trial using plots of 20 plants, 3 replicates and 1 foliar spray was assessed for number of alate and apterous aphids/plant from 8 evaluation dates from Day 3 to Day 29 after treatment. Data for untreated control are an average of four control plots (each 3 replicates; 240 total plants) which were interspersed within the treated plots.

[6] = Cis-jasmone 50 gai/hl, Day 4 after treatment
[7] = Cis-jasmone 50 gai/hl, Day 8 after treatment
[8] = Cis-jasmone 50 gai/hl, Day 11 after treatment
[9] = Cis-jasmone 50 gai/hl, Day 14 after treatment
[10] = Cis-jasmone 50 gai/hl, Day 1 after treatment
[11] = Cis-jasmone 50 gai/hl, Day 3 after treatment
[12] = Cis-jasmone 50 gai/hl, Day 5 after treatment
[13] = Cis-jasmone 50 gai/hl, Day 10 after treatment
[14] = Cis-jasmone 50 gai/hl, Day 15 after treatment
[15] = Cis-jasmone 50 gai/hl, Day 22 after treatment
[16] = Thiamethoxam 30 gai/hl, Day 4 after treatment
[17] = Thiamethoxam 30 gai/hl, Day 8 after treatment
[18] = Thiamethoxam 30 gai/hl, Day 11 after treatment
[19] = Thiamethoxam 30 gai/hl, Day 14 after treatment
[20] = Thiamethoxam 30 gai/hl, Day 1 after treatment
[21] = Thiamethoxam 30 gai/hl, Day 3 after treatment
[22] = Thiamethoxam 30 gai/hl, Day 5 after treatment
[23] = Thiamethoxam 30 gai/hl, Day 10 after treatment
[24] = Thiamethoxam 30 gai/hl, Day 15 after treatment
[25] = Thiamethoxam 30 gai/hl, Day 22 after treatment

Molecule: Cn1cc(C(=O)Nc2cccc3c2[C@@H]2CC[C@H]3C2=C(Cl)Cl)c(C(F)F)n1 (racemic) [Halo methylene benzonorbornene amide, N-[(1RS,4SR)-9-(Dichloromethylidene)-1,2,3,4-tetrahydro-1,4-methanonaphthalen-5-yl]-3-(difluoromethyl)-1-methyl-1H-pyrazole-4-carboxamide]
- Percentage Fungicidal Activity (Phakopsora pachyrhizi): 20%

Molecule: CC/C=C\CC1=C(C)CCC1=O [Cis-jasmone, cis-jasmone]
- Number of Infested Plants (out of 60) [1, 6]: 21
- Average Number of Aphids per Plant [1, 6]: 0.57
- Number of Infested Plants (out of 60) [1, 7]: 48
- Average Number of Aphids per Plant [1, 7]: 3.28
- Number of Infested Plants (out of 60) [1, 8]: 59
- Average Number of Aphids per Plant [1, 8]: 8.02
- Number of Infested Plants (out of 60) [1, 9]: 60
- Average Number of Aphids per Plant [1, 9]: 19.25
- Average Number of Aphids per Plant (Aphid Aphis gossypii [2]; [10]): 40
- average number of aphids per plant observed across all days monitored (Aphid Aphis gossypii [2]; Cis-jasmone 50 gai/hl): 61
- Average Number of Aphids per Plant (Aphid Aphis gossypii [2]; [11]): 33
- Average Number of Aphids per Plant (Aphid Aphis gossypii [2]; [12]): 45
- Average Number of Aphids per Plant (Aphid Aphis gossypii [2]; [7]): 126
- Average Number of Aphids per Plant (Aphid Aphis gossypii [2]; [13]): 139
- Average Number of Aphids per Plant (Aphid Aphis gossypii [2]; [14]): 27
- Average Number of Aphids per Plant (Aphid Aphis gossypii [2]; [15]): 14
- % pest control versus untreated check ([3]; Cis-jasmone 5 gai/hl, mite population/20 leaves/plot): 51.00%
- Average Number of Thrips per Plant (Thrips Thrips Tabaci; [10]): 24
- average number of thrips per plant observed across all days monitored (Thrips Thrips Tabaci; Cis-jasmone 50 gai/hl): 39
- Average Number of Thrips per Plant (Thrips Thrips Tabaci; [11]): 19
- Average Number of Thrips per Plant (Thrips Thrips Tabaci; [12]): 28
- Average Number of Thrips per Plant (Thrips Thrips Tabaci; [7]): 48
- Average Number of Thrips per Plant (Thrips Thrips Tabaci; [13]): 58
- Average Number of Thrips per Plant (Thrips Thrips Tabaci; [14]): 65
- Average Number of Thrips per Plant (Thrips Thrips Tabaci; [15]): 32
- Average Number of Aphids per Plant ([4]; Cis-jasmone at 100 gai/hl, Day 3 after treatment): 2.963
- Average Number of Aphids per Plant ([4]; Cis-jasmone at 100 gai/hl, Day 7 after treatment): 6.563
- Average Number of Aphids per Plant ([4]; Cis-jasmone at 100 gai/hl, Day 10 after treatment): 12.375
- Average Number of Aphids/Plant, Alate (Aphid Aphis gossypii [5]; Cis-Jasmone 50 gai/hl): 18
- Average Number of Aphids/Plant, Apterous (Aphid Aphis gossypii [5]; Cis-Jasmone 50 gai/hl): 260

Molecule: CNC(=O)c1cc(C#N)cc(C)c1NC(=O)c1cc(Br)nn1-c1ncccc1Cl [Cyantraniliprole, cyantraniliprole]
- Average Number of Aphids/Plant, Alate (Aphid Aphis gossypii [5]; Cyantraniliprole 100 gai/hl): 17
- Average Number of Aphids/Plant, Apterous (Aphid Aphis gossypii [5]; Cyantraniliprole 100 gai/hl): 235
- Average Number of Aphids/Plant, Alate (Aphid Aphis gossypii [5]; Cyantraniliprole 200 gai/hl): 16
- Average Number of Aphids/Plant, Apterous (Aphid Aphis gossypii [5]; Cyantraniliprole 200 gai/hl): 179

Molecule: CN1COCN(Cc2cnc(Cl)s2)/C1=N\[N+](=O)[O-] [Thiamethoxam, thiamethoxam]
- Number of Infested Plants (out of 60) [1, 16]: 1
- Average Number of Aphids per Plant [1, 16]: 0.05
- Number of Infested Plants (out of 60) [1, 17]: 3
- Average Number of Aphids per Plant [1, 17]: 0.12
- Number of Infested Plants (out of 60) [1, 18]: 15
- Average Number of Aphids per Plant [1, 18]: 1
- Number of Infested Plants (out of 60) [1, 19]: 22
- Average Number of Aphids per Plant [1, 19]: 2.25
- Average Number of Aphids per Plant (Aphid Aphis gossypii [2]; [20]): 41
- average number of aphids per plant observed across all days monitored (Aphid Aphis gossypii [2]; Thiamethoxam 30 gai/hl): 25
- Average Number of Aphids per Plant (Aphid Aphis gossypii [2]; [21]): 20
- Average Number of Aphids per Plant (Aphid Aphis gossypii [2]; [22]): 23
- Average Number of Aphids per Plant (Aphid Aphis gossypii [2]; [17]): 26
- Average Number of Aphids per Plant (Aphid Aphis gossypii [2]; [23]): 33
- Average Number of Aphids per Plant (Aphid Aphis gossypii [2]; [24]): 20
- Average Number of Aphids per Plant (Aphid Aphis gossypii [2]; [25]): 10
- Average Number of Thrips per Plant (Thrips Thrips Tabaci; [20]): 31
- average number of thrips per plant observed across all days monitored (Thrips Thrips Tabaci; Thiamethoxam 30 gai/hl): 28
- Average Number of Thrips per Plant (Thrips Thrips Tabaci; [21]): 17
- Average Number of Thrips per Plant (Thrips Thrips Tabaci; [22]): 27
- Average Number of Thrips per Plant (Thrips Thrips Tabaci; [17]): 15
- Average Number of Thrips per Plant (Thrips Thrips Tabaci; [23]): 27
- Average Number of Thrips per Plant (Thrips Thrips Tabaci; [24]): 52
- Average Number of Thrips per Plant (Thrips Thrips Tabaci; [25]): 29
- Average Number of Aphids per Plant ([4]; Thiamethoxam at 25 gai/hl, Day 3 after treatment): 0.063
- Average Number of Aphids per Plant ([4]; Thiamethoxam at 25 gai/hl, Day 7 after treatment): 0.788
- Average Number of Aphids per Plant ([4]; Thiamethoxam at 25 gai/hl, Day 10 after treatment): 4.813

Molecule: abamectin
- % pest control versus untreated check ([3]; Abamectin 0.45 gai/hl): 41.22%
- % pest control versus untreated check ([3]; Abamectin 0.9 g active ingredient/hl): 56.56%
